Consider three molecules from patent publication US6989371B1, “Bombesin analogs for treatment of cancer” (Dabur Research Foundation, priority 1996, dated 2006).

Non-standard residues stand in square brackets, D forms with d. Residues, ends and D or L forms follow the SMILES beside them. Aib = CC(C)(N)C(=O)O

The test system of one data set is PTC (colon). Put plainly: two day MTT cytotoxicity assay (Example 12). The data set is classed as cell-based, human. The following applies: 48 hrs. Here is the method:
(§1) The cytoxicity of the peptide analog was carried out by two day MTT [3-(4,5-dimethylthiazol-2-yl)-2,5-diphenyl tetrazolium bromide]assay. MTT assay is based on the principle of uptake of MTT, a tetrazolium salt, by metabolically active cells where it is metabolized by active mitochondria into a blue colored formazon product, which can be read spectrometrically (J. of Immunological Methods 65: 55–63, 1983). To prepare the MTT stock solution needed, MTT was dissolved in phosphate buffered saline with a pH of 7.4 to obtain an MTT concentration of 5 mg/ml; the resulting mixture was filtered through a 0.22 micron filter to sterilize and remove a small amount of insoluble residue. This filtered mixture was the MTT stock solution.
(§2) Briefly, for each tumor type, 10,000 cells were seeded in 96-well tissue culture plate and incubated with each peptide concentration individually in a CO2 incubator for 48 hrs. The peptide analog at different concentrations was added once every 24 hrs during the incubation period. Control cultures, which were not treated with the peptide was similarly incubated. The assay was terminated by adding 100 μg (20 μl) of MTT to each well, incubating for three hours, decanting supernatant and finally adding 150 μl of dimethylsulphoxide to each well to dissolve the formazon. The plates were incubated for 15 minutes at 37° C. and read spectrophotometrically at 540 nm; and cytotoxicity percentage was calculated by following formula: • Cytotoxicity Percentage=100×[1−X/R1], • where X=(absorbance of the treated sample at 540 nm-absorbance of a blank at 540 nn) and • R1=(absorbance of the untreated control at 540 nm)—(absorbance of the blank at 540 nm).
(§3) Thus in each of the MTT cytotoxicity assay the percentage was calculated according to the above formula and was based on the proliferation of the untreated controls, the value of which was considered as 100°0.
(§4) The biological activity of synthesized peptide SEQ ID NO:3 was tested on different human tumor cell lines such as HT-29 & PTC (colon), A549 (non small lung cell), KB (oral squamous cell), MCF7 & MDA.MB.453 (Breast), HuTu80 (duodenum), PA-1 (ovary), MOLT-4 (leukemia) and MlAPaCa2 (Pancreas) at various molar concentrations.
A general note: Formazan colour is commonly taken as a measure of viable cells.

For another data set, the system named is HuTu80 (duodenum). Put plainly: two day MTT cytotoxicity assay (Example 12). In kind it is cell-based, human. The procedure:
as §1, §2, §3, §4

For the next data set, the system named is MOLT-4 (leukemia). As to the kind of experiment: two day MTT cytotoxicity assay (Example 12). The data set is classed as cell-based, human. Here is the method:
as §1, §2, §3, §4

For another data set, the system named is PA-1 (ovary). As to the kind of experiment: two day MTT cytotoxicity assay (Example 12). In kind it is cell-based, human. The procedure: as §1, §2, §3, §4
A further data set has as its system MDA.MB.453 (Breast). Put plainly: two day MTT cytotoxicity assay (Example 12). The data set is classed as cell-based, human. The procedure:
as §1, §2, §3, §4

The subject of another data set is MCF7 (Breast). As to the kind of experiment: two day MTT cytotoxicity assay (Example 12). In kind it is cell-based, human. The procedure: as §1, §2, §3, §4
A further data set relates to KB (oral squamous cell). As to the kind of experiment: two day MTT cytotoxicity assay (Example 12). In kind it is cell-based, human. The following applies: 48 hrs. Here is the method: as §1, §2, §3, §4
Another data set concerns MlAPaCa2 (Pancreas). Put plainly: two day MTT cytotoxicity assay (Example 12). In kind it is cell-based, human. The procedure:
as §1, §2, §3, §4

In data set [1] the test system is A549 (non small lung cell). Put plainly: two day MTT cytotoxicity assay (Example 12). In kind it is cell-based, human. Here is the method: as §1, §2, §3, §4
The next data set has as its system HT-29 (colon). As to the kind of experiment: two day MTT cytotoxicity assay (Example 12). The data set is classed as cell-based, human. The procedure:
as §1, §2, §3, §4

Data set [2] deals with MCF-7 MIII human breast cancer cell line xenografts. The following applies: MCF-7 MIII xenografts, female athymic nude mice, after 2 weeks of treatment, alone or in combination with SB-75; cited from earlier work.
Data set [3] deals with human gastric cancer cell line Hs746T xenografts. The following applies: nude mice bearing Hs746T xenografts; cited from earlier work.
For the next data set, the system named is intact SCLC cells. The following applies: 37° C., RPMI medium, 0–1080 minutes; cited from earlier work.
The subject of a further data set is SCLC xenograft. The following applies: in vivo; cited from earlier work.

On to `CC(C)C[C@H](NC(=O)[C@H](Cc1c[nH]cn1)NC(=O)C(C)(C)NC(=O)[C@@H](NC(=O)[C@H](C)NC(=O)[C@H](Cc1c[nH]c2ccccc12)NC(=O)[C@H](CCC(N)=O)NC(=O)[C@H](N)Cc1ccccc1)C(C)C)C(N)=O` [SEQ ID NO: 3, D-Phe-Gln-Trp-Ala-Val-Aib-His-Leu-NH2] (H-[dF]QWAV[Aib]HL-NH2; N-terminus assumed), for which the Percentage cytotoxicity was determined as 80.0 ± 7.1% in the data set with PTC (colon) (10 pM); 26.5 ± 3.8% in the data set on PTC (colon) (100 pM); 27.7 ± 3.6% in the data set with PTC (colon) (10 nM); 27.7 ± 2.8% with PTC (colon) (100 nM); 17.9 ± 2.5% with PTC (colon) (1 μM); 23.8 ± 2.8% in the data set on PTC (colon). In addition, the Percentage cytotoxicity in the data set on HuTu80 (duodenum) (HuTu80, 10 pM, 48 hrs) is 10.3 ± 3.5%; with HuTu80 (duodenum) (HuTu80, 100 pM, 48 hrs) it was 14.7 ± 4.2%; with HuTu80 (duodenum) (HuTu80, 10 nM, 48 hrs), 14.3 ± 3.5%; in the data set on HuTu80 (duodenum) (HuTu80, 100 nM, 48 hrs), 15.5 ± 4.7%; with HuTu80 (duodenum) (HuTu80, 1 μM, 48 hrs), 12.2 ± 4.0%; in the data set on HuTu80 (duodenum) (HuTu80, 48 hrs), 13.3 ± 4.0%. Moreover, the Percentage cytotoxicity in the data set on MOLT-4 (leukemia) (MOLT-4, 10 pM, 48 hrs) is given as 49.9 ± 4.1%; in the data set on MOLT-4 (leukemia) (MOLT-4, 100 pM, 48 hrs) it was 15.9 ± 3.0%; with MOLT-4 (leukemia) (MOLT-4, 10 nM, 48 hrs) it was “Nil”; in the data set with MOLT-4 (leukemia) (MOLT-4, 100 nM, 48 hrs), 1.4 ± 1.0%; with MOLT-4 (leukemia) (MOLT-4, 1 μM, 48 hrs), 9.0 ± 1.2%; in the data set on MOLT-4 (leukemia) (MOLT-4, 48 hrs) it was 1.0 ± 0.4%. The Percentage cytotoxicity turned out to be 37.7 ± 3.9% with PA-1 (ovary) (PA-1, 10 pM, 48 hrs); 40.1 ± 6.2% with PA-1 (ovary) (PA-1, 100 pM, 48 hrs); 25.4 ± 4.2% with PA-1 (ovary) (PA-1, 10 nM, 48 hrs); 34.2 ± 5.8% in the data set with PA-1 (ovary) (PA-1, 100 nM, 48 hrs); 31.2 ± 5.1% with PA-1 (ovary) (PA-1, 1 μM, 48 hrs); 36.1 ± 6.1% in the data set on PA-1 (ovary) (PA-1, 48 hrs). Further, the Percentage cytotoxicity is on record as 49.5 ± 4.2% in the data set on MDA.MB.453 (Breast) (MDA.MB.453, 10 pM, 48 hrs); 25.5 ± 2.9% in the data set with MDA.MB.453 (Breast) (MDA.MB.453, 100 pM, 48 hrs); “Nil” with MDA.MB.453 (Breast) (MDA.MB.453, 10 nM, 48 hrs); 11.2 ± 3.1% in the data set with MDA.MB.453 (Breast) (MDA.MB.453, 100 nM, 48 hrs); 5.6 ± 3.5% with MDA.MB.453 (Breast) (MDA.MB.453, 1 μM, 48 hrs); 9.6 ± 1.9% with MDA.MB.453 (Breast) (MDA.MB.453, 48 hrs). The Percentage cytotoxicity with MCF7 (Breast) (MCF 7, 10 pM, 48 hrs) is listed as 39.33 ± 2.6%; with MCF7 (Breast) (MCF 7, 100 pM, 48 hrs) it was 38.95 ± 4.5%; with MCF7 (Breast) (MCF 7, 10 nM, 48 hrs), 24.35 ± 5%; in the data set on MCF7 (Breast) (MCF 7, 100 nM, 48 hrs), “Nil”; with MCF7 (Breast) (MCF 7, 1 μM, 48 hrs), “Nil”; in the data set on MCF7 (Breast) (MCF 7, 48 hrs), 30.68 ± 6%. Moreover, the Percentage cytotoxicity is 40.9 ± 5.5% in the data set with KB (oral squamous cell) (10 pM); 26.4 ± 4.5% in the data set with KB (oral squamous cell) (100 pM); 30.9 ± 5.5% with KB (oral squamous cell) (10 nM); 31.6 ± 6.5% with KB (oral squamous cell) (100 nM); 32.1 ± 5.0% in the data set with KB (oral squamous cell) (1 μM); 30.4 ± 6.5% in the data set on KB (oral squamous cell). For the same molecule, the Percentage cytotoxicity in the data set with MlAPaCa2 (Pancreas) (MIAPaCa2, 10 pM, 48 hrs) is recorded as 27.4 ± 4.5%; with MlAPaCa2 (Pancreas) (MIAPaCa2, 100 pM, 48 hrs), 28.2 ± 4.5%; in the data set with MlAPaCa2 (Pancreas) (MIAPaCa2, 10 nM, 48 hrs) it was 33.2 ± 6.7%; in the data set on MlAPaCa2 (Pancreas) (MIAPaCa2, 100 nM, 48 hrs) it was 30.3 ± 4.2%; with MlAPaCa2 (Pancreas) (MIAPaCa2, 1 μM, 48 hrs) it was 33.3 ± 4.5%; in the data set with MlAPaCa2 (Pancreas) (MIAPaCa2, 48 hrs) it was 36.4 ± 0.5%. For the same molecule, the Percentage cytotoxicity came out at 30.5 ± 3.5% in data set [1] (A549, 10 pM, 48 hrs); 25.2 ± 3.5% in [1] (A549, 100 pM, 48 hrs); 32.2 ± 5.5% in data set [1] (A549, 10 nM, 48 hrs); 23.6 ± 4.5% in data set [1] (A549, 100 nM, 48 hrs); 30.7 ± 6.5% in data set [1] (A549, 1 μM, 48 hrs); 32.4 ± 4.5% in data set [1] (A549, 48 hrs). In addition, the Percentage cytotoxicity in the data set with HT-29 (colon) (HT29, 10 pM, 48 hrs) came out at 18.7 ± 4.5%; in the data set with HT-29 (colon) (HT29, 100 pM, 48 hrs), 19.9 ± 5.5%; with HT-29 (colon) (HT29, 10 nM, 48 hrs), 11.8 ± 5.0%; in the data set on HT-29 (colon) (HT29, 100 nM, 48 hrs), 17.8 ± 4.5%; in the data set with HT-29 (colon) (HT29, 1 μM, 48 hrs), 25.4 ± 5.5%; in the data set on HT-29 (colon) (HT29, 48 hrs) it was 20.3 ± 4.5%.

Take “(DTpi6, Leu3, psi[CH2NH]—Leu14) bombesin (6–14) [RC-3095]”: the tumor volume entry in [2] is “significant inhibition of tumor volume”. Moreover, the tumor growth entry in data set [3] was “effectively inhibited tumor growth”.

Consider [Psi 13, 14] Bombesin, for which the “TI/2 (stability to metabolic enzymes)” value with intact SCLC cells is 646 min. The SCLC xenograft formation result in the data set on SCLC xenograft is reported as “inhibited SCLC xenograft formation in vivo in a dose-dependent manner”.
